Test results taken from ChEMBL document CHEMBL6074667, “Discovery and Optimization of First-in-Class Molecular Glue Degraders of the WIZ Transcription Factor for Fetal Hemoglobin Induction to Treat Sickle Cell Disease” (J Med Chem, 2024).

Each molecule was assayed against T1, Protein cereblon/Protein Wiz (Homo sapiens, UniProt Q96SW2+O95785) (assay: Molecular glue activity at CRBN/HiBiT-tagged WIZ (unknown origin) expressed in HEK293T cells assessed as induction of WIZ degradation incubated for 18 hrs by Nano-Glo HiBiT-Lytic reagent based luminescence plate reader analysis). Conditions: not given.
Type: cell-based
With CCN1CCC[C@@H](Oc2ccc3c(c2)CN(C2CCC(=O)NC2=O)C3=O)C1 (stereo partly specified) the DC50 was 0.026 µM.
In the case of CCN1C[C@H](C)C[C@@H](Oc2ccc3c(c2)CN(C2CCC(=O)NC2=O)C3=O)C1 (mixture of isomers) [listing 1 of 2 here], the DC50 is reported as 0.013 µM.
CCN1CCC2(CC2)[C@@H](Oc2ccc3c(c2)CN(C2CCC(=O)NC2=O)C3=O)C1 (stereo partly specified) gave a DC50 of 0.008 µM.
CCN1C[C@H](Oc2ccc3c(c2)CN(C2CCC(=O)NC2=O)C3=O)CC[C@H]1C (stereo partly specified) showed a DC50 of 0.105 µM.

What follows are molecules tested against T1, Protein cereblon/Protein Wiz (assay: Molecular glue activity at CRBN/HiBiT-tagged WIZ (unknown origin) expressed in HEK293T cells assessed as induction of WIZ degradation incubated for 18 hrs by Nano-Glo HiBiT-Lytic reagent based luminescence plate reader analysis relative to control). Conditions: not given.
Type: cell-based
Design: concentration or dose not given beside the values
Target sequence in this assay (O95785 whole entry, looked up): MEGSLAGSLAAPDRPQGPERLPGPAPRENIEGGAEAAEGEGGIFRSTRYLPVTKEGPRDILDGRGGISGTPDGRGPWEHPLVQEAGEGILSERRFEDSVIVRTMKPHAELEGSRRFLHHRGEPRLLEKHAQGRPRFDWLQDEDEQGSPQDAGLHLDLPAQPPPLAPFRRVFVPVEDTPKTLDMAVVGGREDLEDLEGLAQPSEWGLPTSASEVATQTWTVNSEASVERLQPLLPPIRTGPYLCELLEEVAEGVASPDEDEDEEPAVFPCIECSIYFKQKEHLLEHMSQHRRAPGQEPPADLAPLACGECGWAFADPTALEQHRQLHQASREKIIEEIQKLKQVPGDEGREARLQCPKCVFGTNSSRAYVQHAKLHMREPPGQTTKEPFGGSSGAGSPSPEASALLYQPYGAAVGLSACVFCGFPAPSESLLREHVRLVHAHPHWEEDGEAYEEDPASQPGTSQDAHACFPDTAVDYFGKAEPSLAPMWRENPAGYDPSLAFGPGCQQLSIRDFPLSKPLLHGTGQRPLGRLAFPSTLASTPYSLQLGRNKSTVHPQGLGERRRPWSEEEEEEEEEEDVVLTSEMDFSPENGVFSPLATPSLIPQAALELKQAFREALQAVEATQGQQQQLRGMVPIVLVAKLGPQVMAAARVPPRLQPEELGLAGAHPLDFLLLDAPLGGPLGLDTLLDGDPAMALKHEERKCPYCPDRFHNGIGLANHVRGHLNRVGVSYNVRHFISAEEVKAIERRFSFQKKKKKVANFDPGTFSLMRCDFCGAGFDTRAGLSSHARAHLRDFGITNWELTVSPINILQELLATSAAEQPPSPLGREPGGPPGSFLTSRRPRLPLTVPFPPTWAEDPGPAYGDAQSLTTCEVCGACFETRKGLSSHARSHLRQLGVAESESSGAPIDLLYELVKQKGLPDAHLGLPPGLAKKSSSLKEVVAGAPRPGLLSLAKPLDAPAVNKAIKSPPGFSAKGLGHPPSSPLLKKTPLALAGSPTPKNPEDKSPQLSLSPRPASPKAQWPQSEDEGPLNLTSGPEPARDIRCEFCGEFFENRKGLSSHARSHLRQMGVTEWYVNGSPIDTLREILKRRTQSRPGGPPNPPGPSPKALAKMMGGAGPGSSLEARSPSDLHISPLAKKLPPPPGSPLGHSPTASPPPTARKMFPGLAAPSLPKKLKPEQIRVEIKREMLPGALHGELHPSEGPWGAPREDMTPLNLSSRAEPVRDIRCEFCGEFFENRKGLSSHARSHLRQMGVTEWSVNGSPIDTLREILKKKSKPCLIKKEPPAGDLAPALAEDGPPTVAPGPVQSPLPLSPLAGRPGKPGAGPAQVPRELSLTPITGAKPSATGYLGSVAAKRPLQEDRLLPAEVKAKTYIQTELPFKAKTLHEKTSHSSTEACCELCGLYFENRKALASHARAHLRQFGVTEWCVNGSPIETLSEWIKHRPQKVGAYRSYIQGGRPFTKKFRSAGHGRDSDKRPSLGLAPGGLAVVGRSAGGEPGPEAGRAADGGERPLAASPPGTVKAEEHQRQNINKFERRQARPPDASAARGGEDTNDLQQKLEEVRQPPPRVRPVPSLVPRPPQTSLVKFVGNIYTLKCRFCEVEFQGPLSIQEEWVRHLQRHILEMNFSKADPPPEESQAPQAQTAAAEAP
Target sequence in this assay (Q96SW2 whole entry, looked up): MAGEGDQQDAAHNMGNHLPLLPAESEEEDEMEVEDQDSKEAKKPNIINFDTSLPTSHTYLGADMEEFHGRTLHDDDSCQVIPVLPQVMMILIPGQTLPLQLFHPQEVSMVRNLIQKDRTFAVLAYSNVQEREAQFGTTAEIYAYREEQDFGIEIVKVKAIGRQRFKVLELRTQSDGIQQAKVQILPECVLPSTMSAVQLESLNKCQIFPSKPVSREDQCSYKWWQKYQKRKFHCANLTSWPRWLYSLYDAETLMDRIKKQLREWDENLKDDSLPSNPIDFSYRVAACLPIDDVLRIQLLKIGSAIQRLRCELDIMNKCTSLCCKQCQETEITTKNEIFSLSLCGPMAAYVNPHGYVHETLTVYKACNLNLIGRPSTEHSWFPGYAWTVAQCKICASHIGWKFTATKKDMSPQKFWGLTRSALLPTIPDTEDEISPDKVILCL
CCN1C[C@H](C)C[C@@H](Oc2ccc3c(c2)CN(C2CCC(=O)NC2=O)C3=O)C1 (stereo in doubt; 10) showed an Activity of 87%.
CCN1CCC[C@@H](Oc2ccc3c(c2)CN(C2CCC(=O)NC2=O)C3=O)C1 (stereo partly specified) gave an Activity of 77%.
In the case of CCN1CCC2(CC2)[C@@H](Oc2ccc3c(c2)CN(C2CCC(=O)NC2=O)C3=O)C1 (stereo partly specified), the Activity is reported as 82%.
With CCN1C[C@H](C)C[C@@H](Oc2ccc3c(c2)CN(C2CCC(=O)NC2=O)C3=O)C1 (mixture of isomers) [listing 2 of 2 here] the Activity was 78%.
CCN1C[C@H](Oc2ccc3c(c2)CN(C2CCC(=O)NC2=O)C3=O)CC[C@H]1C (stereo partly specified) showed an Activity of 60%.

Each molecule was assayed against T2, Protein cereblon/Sal-like protein 4 (Homo sapiens, UniProt Q96SW2+Q9UJQ4) (assay: Molecular glue activity at CRBN/HiBiT-tagged SALL4 (unknown origin) expressed in human GripTite 293 MSR cells assessed as induction of SALL4 degradation incubated for 20 hrs by Nano-Glo HiBiT-Lytic reagent based luminescence plate reader analysis). Conditions: not given.
Type: cell-based
Work on CCN1CCC[C@@H](Oc2ccc3c(c2)CN(C2CCC(=O)NC2=O)C3=O)C1 (stereo partly specified) yielded a DC50 of over 50 µM.
In the case of CCN1C[C@H](C)C[C@@H](Oc2ccc3c(c2)CN(C2CCC(=O)NC2=O)C3=O)C1 (mixture of isomers) [listing 1 of 2 here], the DC50 is reported as over 50 µM.
CCN1CCC2(CC2)[C@@H](Oc2ccc3c(c2)CN(C2CCC(=O)NC2=O)C3=O)C1 (stereo partly specified) gave a DC50 of over 50 µM.
For CCN1C[C@H](Oc2ccc3c(c2)CN(C2CCC(=O)NC2=O)C3=O)CC[C@H]1C (stereo partly specified), the DC50 was over 50 µM.

What follows are molecules tested against T2, Protein cereblon/Sal-like protein 4 (assay: Molecular glue activity at CRBN/HiBiT-tagged SALL4 (unknown origin) expressed in human GripTite 293 MSR cells assessed as induction of SALL4 degradation incubated for 20 hrs by Nano-Glo HiBiT-Lytic reagent based luminescence plate reader analysis relative to control). Conditions: not given.
Type: cell-based
Design: concentration or dose not given beside the values
Target sequence in this assay (Q96SW2 whole entry, looked up): as above
Target sequence in this assay (Q9UJQ4 whole entry, looked up): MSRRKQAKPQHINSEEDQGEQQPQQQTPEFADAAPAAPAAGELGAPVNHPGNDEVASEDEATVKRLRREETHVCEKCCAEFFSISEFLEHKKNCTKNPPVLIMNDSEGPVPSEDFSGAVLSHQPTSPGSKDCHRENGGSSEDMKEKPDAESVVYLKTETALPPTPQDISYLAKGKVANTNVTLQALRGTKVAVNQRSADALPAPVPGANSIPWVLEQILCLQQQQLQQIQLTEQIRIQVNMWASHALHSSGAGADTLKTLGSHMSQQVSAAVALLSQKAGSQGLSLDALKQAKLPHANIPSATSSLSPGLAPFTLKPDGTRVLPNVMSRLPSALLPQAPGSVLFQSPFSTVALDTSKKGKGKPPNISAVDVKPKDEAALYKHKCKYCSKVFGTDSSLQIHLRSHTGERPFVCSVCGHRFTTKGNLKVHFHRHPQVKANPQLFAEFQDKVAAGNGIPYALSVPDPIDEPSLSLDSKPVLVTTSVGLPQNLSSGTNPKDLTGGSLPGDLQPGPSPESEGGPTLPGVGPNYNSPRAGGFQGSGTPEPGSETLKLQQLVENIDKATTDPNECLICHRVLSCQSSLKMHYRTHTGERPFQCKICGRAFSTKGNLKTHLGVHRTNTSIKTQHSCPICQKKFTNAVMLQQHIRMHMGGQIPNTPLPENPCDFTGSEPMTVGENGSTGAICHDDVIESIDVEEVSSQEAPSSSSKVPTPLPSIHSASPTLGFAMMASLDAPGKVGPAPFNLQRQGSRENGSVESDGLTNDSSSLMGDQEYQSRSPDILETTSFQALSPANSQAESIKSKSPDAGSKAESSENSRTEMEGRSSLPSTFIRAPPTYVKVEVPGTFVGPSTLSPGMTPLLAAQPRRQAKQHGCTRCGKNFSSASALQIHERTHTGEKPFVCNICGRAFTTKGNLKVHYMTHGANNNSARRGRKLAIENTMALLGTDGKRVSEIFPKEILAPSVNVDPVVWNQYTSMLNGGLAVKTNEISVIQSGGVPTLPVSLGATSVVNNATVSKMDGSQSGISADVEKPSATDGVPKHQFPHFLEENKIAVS
In the case of CCN1C[C@H](C)C[C@@H](Oc2ccc3c(c2)CN(C2CCC(=O)NC2=O)C3=O)C1 (stereo in doubt; 10), the Activity is reported as 26%.
Work on CCN1CCC[C@@H](Oc2ccc3c(c2)CN(C2CCC(=O)NC2=O)C3=O)C1 (stereo partly specified) yielded an Activity of 28%.
Work on CCN1CCC2(CC2)[C@@H](Oc2ccc3c(c2)CN(C2CCC(=O)NC2=O)C3=O)C1 (stereo partly specified) yielded an Activity of 11%.
With CCN1C[C@H](C)C[C@@H](Oc2ccc3c(c2)CN(C2CCC(=O)NC2=O)C3=O)C1 (mixture of isomers) [listing 2 of 2 here] the Activity was 15%.
Work on CCN1C[C@H](Oc2ccc3c(c2)CN(C2CCC(=O)NC2=O)C3=O)CC[C@H]1C (stereo partly specified) yielded an Activity of 27%.

What follows are molecules tested against T3, Cereblon/Ikaros (Homo sapiens, UniProt Q96SW2+Q13422) (assay: Molecular glue activity at CRBN/HiBiT-tagged IKZF1 (unknown origin) expressed in human GripTite 293 MSR cells assessed as induction of […] incubated for 20 hrs by Nano-Glo HiBiT-Lytic reagent based luminescence plate reader analysis). Conditions: not given.
Type: cell-based
In the case of CCN1CCC[C@@H](Oc2ccc3c(c2)CN(C2CCC(=O)NC2=O)C3=O)C1 (stereo partly specified), the DC50 is reported as over 50 µM.
CCN1C[C@H](C)C[C@@H](Oc2ccc3c(c2)CN(C2CCC(=O)NC2=O)C3=O)C1 (mixture of isomers) [listing 1 of 2 here] gave a DC50 of over 50 µM.
Work on CCN1CCC2(CC2)[C@@H](Oc2ccc3c(c2)CN(C2CCC(=O)NC2=O)C3=O)C1 (stereo partly specified) yielded a DC50 of over 50 µM.
For CCN1C[C@H](Oc2ccc3c(c2)CN(C2CCC(=O)NC2=O)C3=O)CC[C@H]1C (stereo partly specified), the DC50 was over 50 µM.

Each molecule was assayed against T3, Cereblon/Ikaros (assay: Molecular glue activity at CRBN/HiBiT-tagged IKZF1 (unknown origin) expressed in human GripTite 293 MSR cells assessed as induction of […] incubated for 20 hrs by Nano-Glo HiBiT-Lytic reagent based luminescence plate reader analysis relative to control). Conditions: not given.
Type: cell-based
Design: concentration or dose not given beside the values
In the case of CCN1C[C@H](C)C[C@@H](Oc2ccc3c(c2)CN(C2CCC(=O)NC2=O)C3=O)C1 (stereo in doubt; 10), the Activity is reported as under 10%.
With CCN1CCC[C@@H](Oc2ccc3c(c2)CN(C2CCC(=O)NC2=O)C3=O)C1 (stereo partly specified) the Activity was under 10%.
CCN1CCC2(CC2)[C@@H](Oc2ccc3c(c2)CN(C2CCC(=O)NC2=O)C3=O)C1 (stereo partly specified) showed an Activity of under 10%.
CCN1C[C@H](C)C[C@@H](Oc2ccc3c(c2)CN(C2CCC(=O)NC2=O)C3=O)C1 (mixture of isomers) [listing 2 of 2 here] showed an Activity of under 10%.
In the case of CCN1C[C@H](Oc2ccc3c(c2)CN(C2CCC(=O)NC2=O)C3=O)CC[C@H]1C (stereo partly specified), the Activity is reported as under 10%.

What follows are molecules tested against T4, Protein cereblon/Eukaryotic peptide chain release factor GTP-binding subunit ERF3A (Homo sapiens, UniProt Q96SW2+P15170) (assay: Molecular glue activity at CRBN/HiBiT-tagged GSPT1 (unknown origin) expressed in human GripTite 293 MSR cells assessed as induction of GSPT1 degradation incubated for 20 hrs by Nano-Glo HiBiT-Lytic reagent based luminescence plate reader analysis). Conditions: not given.
Type: cell-based
For CCN1CCC[C@@H](Oc2ccc3c(c2)CN(C2CCC(=O)NC2=O)C3=O)C1 (stereo partly specified), the DC50 was over 50 µM.
Molecule CCN1C[C@H](C)C[C@@H](Oc2ccc3c(c2)CN(C2CCC(=O)NC2=O)C3=O)C1 (mixture of isomers) [listing 1 of 2 here] has a DC50 of over 50 µM.
Work on CCN1CCC2(CC2)[C@@H](Oc2ccc3c(c2)CN(C2CCC(=O)NC2=O)C3=O)C1 (stereo partly specified) yielded a DC50 of over 50 µM.
Work on CCN1C[C@H](Oc2ccc3c(c2)CN(C2CCC(=O)NC2=O)C3=O)CC[C@H]1C (stereo partly specified) yielded a DC50 of over 50 µM.

The molecules below were run against T4, Protein cereblon/Eukaryotic peptide chain release factor GTP-binding subunit ERF3A (assay: Molecular glue activity at CRBN/HiBiT-tagged GSPT1 (unknown origin) expressed in human GripTite 293 MSR cells assessed as induction of GSPT1 degradation incubated for 20 hrs by Nano-Glo HiBiT-Lytic reagent based luminescence plate reader analysis relative to control). Conditions: not given.
Type: cell-based
Design: concentration or dose not given beside the values
Target sequence in this assay (P15170 whole entry, looked up): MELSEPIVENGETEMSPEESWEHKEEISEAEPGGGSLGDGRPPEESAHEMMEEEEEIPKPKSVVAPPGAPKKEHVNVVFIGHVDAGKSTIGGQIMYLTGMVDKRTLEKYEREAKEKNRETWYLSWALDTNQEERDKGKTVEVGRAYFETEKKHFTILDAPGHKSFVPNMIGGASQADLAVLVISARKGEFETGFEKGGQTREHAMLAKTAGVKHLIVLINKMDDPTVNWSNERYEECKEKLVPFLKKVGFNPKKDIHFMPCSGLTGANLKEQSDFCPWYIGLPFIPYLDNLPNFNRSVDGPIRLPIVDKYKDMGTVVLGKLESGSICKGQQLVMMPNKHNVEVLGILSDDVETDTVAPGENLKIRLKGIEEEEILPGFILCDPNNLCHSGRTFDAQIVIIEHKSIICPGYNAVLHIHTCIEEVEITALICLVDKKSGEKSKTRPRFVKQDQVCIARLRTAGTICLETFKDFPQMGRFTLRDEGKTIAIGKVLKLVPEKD
Target sequence in this assay (Q96SW2 whole entry, looked up): as the sequence (Q96SW2 whole entry, looked up) above
CCN1C[C@H](C)C[C@@H](Oc2ccc3c(c2)CN(C2CCC(=O)NC2=O)C3=O)C1 (stereo in doubt; 10) gave an Activity of under 10%.
Work on CCN1CCC[C@@H](Oc2ccc3c(c2)CN(C2CCC(=O)NC2=O)C3=O)C1 (stereo partly specified) yielded an Activity of under 10%.
CCN1CCC2(CC2)[C@@H](Oc2ccc3c(c2)CN(C2CCC(=O)NC2=O)C3=O)C1 (stereo partly specified) was tested, and the Activity was under 10%.
Work on CCN1C[C@H](C)C[C@@H](Oc2ccc3c(c2)CN(C2CCC(=O)NC2=O)C3=O)C1 (mixture of isomers) [listing 2 of 2 here] yielded an Activity of under 10%.
CCN1C[C@H](Oc2ccc3c(c2)CN(C2CCC(=O)NC2=O)C3=O)CC[C@H]1C (stereo partly specified) showed an Activity of under 10%.

The molecules below were run against T1, Protein cereblon/Protein Wiz (assay: Molecular glue activity at CRBN/WIZ in human CD34-positive derived primary erythroblast cells assessed as induction of WIZ degradation by measuring maximal efficacy measured after 24 hrs by flow cytometric analysis relative to control). Conditions: not given.
Type: cell-based
Target sequence in this assay (O95785 whole entry, looked up): as the sequence (O95785 whole entry, looked up) above
Target sequence in this assay (Q96SW2 whole entry, looked up): as the sequence (Q96SW2 whole entry, looked up) above
Molecule CCN1C[C@H](C)C[C@@H](Oc2ccc3c(c2)CN(C2CCC(=O)NC2=O)C3=O)C1 (stereo in doubt; 10) has an Emax of 84%.

What follows are molecules tested against T1, Protein cereblon/Protein Wiz (assay: Molecular glue activity at CRBN/WIZ in human CD34-positive derived primary erythroblast cells assessed as increase in fetal hemoglobin positive cells in CD71+ CD235a+ subpopulation measured after 7 days by flow cytometric analysis relative to control). Conditions: time 7.0 day.
Type: cell-based
Target sequence in this assay (O95785 whole entry, looked up): as the sequence (O95785 whole entry, looked up) above
Target sequence in this assay (Q96SW2 whole entry, looked up): as the sequence (Q96SW2 whole entry, looked up) above
With CCN1C[C@H](C)C[C@@H](Oc2ccc3c(c2)CN(C2CCC(=O)NC2=O)C3=O)C1 (stereo in doubt; 10) the Activity was 40%.

Each molecule was assayed against T1, Protein cereblon/Protein Wiz (assay: In vivo molecular glue activity at CRBN/WIZ in immunocompromised naive NBSGW mouse xenografted with human CD34 positive HSPC cells assessed as induction of WIZ degradation in peripheral blood human […] B cells administered orally once daily for 21 days by staining based analysis). Conditions: route po, time 21.0 day.
Type: functional, organism-based
Target sequence in this assay (O95785 whole entry, looked up): as the sequence (O95785 whole entry, looked up) above
Target sequence in this assay (Q96SW2 whole entry, looked up): as the sequence (Q96SW2 whole entry, looked up) above
For CCN1C[C@H](C)C[C@@H](Oc2ccc3c(c2)CN(C2CCC(=O)NC2=O)C3=O)C1 (stereo in doubt; 10), the Activity was “Dose-dependent-effect”.

What follows are molecules tested against T1, Protein cereblon/Protein Wiz (assay: In vivo molecular glue activity at CRBN/WIZ in immunocompromised naive NBSGW mouse xenografted with human CD34 positive HSPC cells assessed as induction of WIZ degradation in peripheral blood human C19-positive B cells by measuring maximal efficacy at 0.01 to 1 mg/kg, po administered once daily for 21 days by staining based analysis relative to control). Conditions: dose 0.01-1 mg/kg, time 21.0 day.
Type: functional, organism-based
Target sequence in this assay (O95785 whole entry, looked up): as the sequence (O95785 whole entry, looked up) above
Target sequence in this assay (Q96SW2 whole entry, looked up): as the sequence (Q96SW2 whole entry, looked up) above
For CCN1C[C@H](C)C[C@@H](Oc2ccc3c(c2)CN(C2CCC(=O)NC2=O)C3=O)C1 (stereo in doubt; 10), the Emax was 60%.

These molecules were tested against T1, Protein cereblon/Protein Wiz (assay: In vivo molecular glue activity at CRBN/WIZ in immunocompromised naive NBSGW mouse xenografted with human CD34 positive HSPC cells assessed as fold increase in Hbf-positive cells in moCD45 negative hCD45negative CD71positive CD235A positive bone marrow cells at 0.01 to 1 mg/kg, po administered once daily for 21 days by staining based analysis). Conditions: dose 0.01-1 mg/kg, time 21.0 day.
Type: functional, organism-based
Target sequence in this assay (O95785 whole entry, looked up): as the sequence (O95785 whole entry, looked up) above
Target sequence in this assay (Q96SW2 whole entry, looked up): as the sequence (Q96SW2 whole entry, looked up) above
CCN1C[C@H](C)C[C@@H](Oc2ccc3c(c2)CN(C2CCC(=O)NC2=O)C3=O)C1 (stereo in doubt; 10) showed a fold change (FC) of 5.
